Measured values: patent publication US9855346B2, “Fluorescent dye compositions and uses thereof” (Chang Gung University of Science and Technology, priority 2014, dated 2018)

Legend:
[1] = In vivo real-time optical imaging after IV injection; parameters: species or system Sprague-Dawley rats; conditions: rats
Experimental: Male Sprague-Dawley rats aged 8˜10 weeks was supplied by Lasco (Taipei, Taiwan). Animal experimental protocol was approved by the Institutional Animal Care and Use Committee of Chang Gung University, Taiwan. The rats had free access to water and food at all time. The rats were anesthetized and injected with the compositions of the present invention or the control solution (dimethyl sulfoxide:Tween 80:normal saline=4:2:4) at a DiR dose of 40 μg/kg via femoral vein. In vivo real-time imaging was acquired using Pearl® Impulse at NIR wavelength. Rats were sacrificed 4 h post-injection. The following organs were collected and washed with normal saline: skin, muscle, heart, lungs, liver, spleen, and kidneys. The fluorescence intensity in these organs was assessed Ex Vivo by Pearl® Impulse. In Vivo optical images were taken after ICG, control DiR solution (with 40% v/w dimethyl sulfoxide) and S1-S4 compositions were administered into the rats via intravenous (IV) injection.

[2] = NMR line width of half-amplitude (mobility of CP); type: physicochemical; conditions: line width at half amplitude of methylene protons, 1H-NMR
Experimental: The mobility of CP in the compositions was evaluated by NMR, by measuring the line widths of half-amplitude (Hz) of methylene protons. Compositions were diluted with deuterium oxide by 3-fold. Neat CP was diluted with chloroform-d. The compositions were loaded into NMR tubes and their ^1H-NMR spectra were examined by Avance 400 spectrometer (Bruker, Bremen, Germany).
The mobility of solid fatty ester in lipid cores of the CP-containing compositions was examined by proton NMR. The line width of signals for neat CP was 3.50 Hz.

time post-injection at which fluorescence is detected in the liver (liver clearance) [1] [min]	imaging time ([1]; fluorescence activity in large and small vessels)	Line width (Hz) [2] [Hz]	Compound
≤ 5	about 5 min		CC1(C)C(/C=C/C=C/C=C/C=C2\N(CCCCS(=O)(=O)O)c3ccc4ccccc4c3C2(C)C)=[N+](CCCCS(=O)(=O)[O-])c2ccc3ccccc3c21 [ICG, Indocyanine green]
		3.50	CCCCCCCCCCCCCCCCOC(=O)CCCCCCCCCCCCCCC [CP, Cetyl palmitate]
